Source: patent publication US11034692B1 (Genentech, Inc., priority 2017, dated 2021)

Target: HPK1
Assay: HPK1 Lantha Binding Assay ("Lanth")
Settings: Table B1-1, read-out: HPK1 Ki (μM) (Lanth)
Method: HPK1 Lantha Binding Assay (“Lanth”)
The compounds to be tested were diluted by preparing 12.5 uL/well of 5 mM compound (100×) in columns 2 and 13 and 10 ul/well of DMSO in columns 3-12, 14-23, and wells A1-H1 and I24-P24 of the compound plate using a Bravo liquid handling platform. For the reference compound, the top concentration was 1 mM. To the plate was added 10 ul 2 mM staurosporine in wells J1-P1 and A24-H24. A 11 point 5-fold compound serial dilution was performed using the Bravo liquid handling platform. From the plate were transferred 2.5 ul of the solutions from column 2 and column 13 to the 10 ul of DMSO in columns 3 and 14 & so on. The compound plate was centrifuged at 2500 rpm for 1 min. From the compound plate was transferred 80 nl of the compounds into an assay plate using the Echo liquid handler system. One compound plate makes two assay plates. Each assay plate is sealed and stored in an N2 cabinet.
The following assay concentrations and times were used: 2 nM HPK1, 2 nM Eu-Anti-GST Ab, and 15 nM Tracer222, with 60 min incubation time.
III. HPK Lantha Binding Assay:
For the binding assay, 4 ul 2×HPK1 and Eu-anti-GST antibody were added to each well of the assay plate using a Multidrop reagent dispenser. The solutions were incubated in a 23 C incubator for 1 h. To each well of the assay plate was added 4 ul 2× Tracer-222 using a Multidrop reagent dispenser. The solutions were again incubated in a 23 C incubator for 1 h. The results of the assay were read using an Envision plate reader with the following parameters: TR_FRET, 340ex/615 and 665em; 100 usec Delay; and 200 usec integration.
Compound Ki was analyzed using Morrison ki fit model in XL-fit • a. fit=(1−((((E+x)+(Ki*(1+(S/Kd))))−(((((E+x)+(Ki*(1+(S/Kd))))[…])−((4*E)*x))^0.5))/(2*E))) • res=(y-fit) • b. Parameters: • E=enzyme concentration • S=Tracer222 concentration, Kd=Tracer222 Kd • All measurements reported using the same units (uM)
Exemplary compounds of Formula I or Ia were tested in the binding assays. The Ki data in Table B1-1 are based on the “Lanth” assay.

| SMILES | Ki |
| --- | --- |
| Cc1ccncc1-c1cc2cc(Nc3cnn([C@@H](C)C#N)c3)ncc2c(N)n1 [Compound 274, (S)-2-(4-(8-amino-6-(4-methylpyridin-3-yl)-2,7-naphthyridin-3-ylamino)-1H-pyrazol-1-yl)propanenitrile] | 0.297 nM |
| COCCN1CC(NC(=O)Nc2cc3cc(-c4cnccc4C)nc(N)c3cn2)C1 [Compound 174, 1-(8-amino-6-(4-methylpyridin-3-yl)-2,7-naphthyridin-3-yl)-3-(1-(2-methoxyethyl)azetidin-3-yl)urea] | 2.5 nM |
| Cc1ncncc1-c1cc2cc(NC(=O)[C@@H]3C[C@@H]3F)ncc2c(N)n1 [Compound 12, (1S,2S)—N-(8-amino-6-(4-methylpyrimidin-5-yl)-2,7-naphthyridin-3-yl)-2-fluorocyclopropanecarboxamide] | 49.3 nM |
| Cc1ccncc1-c1nc(N)c2cnc(NC(=O)[C@H]3C[C@@H]3CC#N)cc2c1C1CC1 [Compound 317, (1S,2R)—N-(8-amino-5-cyclopropyl-6-(4-methylpyridin-3-yl)-2,7-naphthyridin-3-yl)-2-(cyanomethyl)cyclopropanecarboxamide] | 0.02 nM |
| Cc1cc(-c2cnn(C)c2)ncc1-c1cc2cc(NC(=O)[C@H]3C[C@@H]3CC#N)ncc2c(N)n1 [Compound 238, (1S,2R)—N-(8-amino-6-(4-methyl-6-(i-methyl-H-pyrazol-4-yl)pyridin-3-yl)-2,7-naphthyridin-3-yl)-2-(cyanomethyl)cyclopropanecarboxamide] | 1.94 nM |
| Cn1cc([C@@H]2C[C@H]2C(=O)Nc2cc3cc(-c4c(F)cccc4Cl)nc(N)c3cn2)cn1 [Compound 302, (1R,2R)—N-(8-amino-6-(2-chloro-6-fluorophenyl)-2,7-naphthyridin-3-yl)-2-(1-methyl-1H-pyrazol-4-yl)cyclopropanecarboxamide] | 0.65 nM |
| Cc1ccncc1-c1nc(N)c2cnc(NC(=O)[C@H]3C[C@@H]3CC#N)cc2c1Cl [Compound 270, (1S,2R)—N-[8-amino-5-chloro-6-(4-methylpyridin-3-yl)-2,7-naphthyridin-3-yl]-2-(cyanomethyl)cyclopropane-1-carboxamide] | 0.116 nM |
| CNC(=O)Nc1cc2cc(-c3cnn(C)c3)nc(N)c2cn1 [Compound 9, 1-(8-amino-6-(1-methyl-1H-pyrazol-4-yl)-2,7-naphthyridin-3-yl)-3-methylurea] | 7.16 nM |
| Cc1cc(-c2cnn(C)c2)ncc1-c1cc2cc(NC(=O)[C@@H]3C[C@H]3CC#N)ncc2c(N)n1 [Compound 237, (1R,2S)—N-(8-amino-6-(4-methyl-6-(1-methyl-1H-pyrazol-4-yl)pyridin-3-yl)-2,7-naphthyridin-3-yl)-2-(cyanomethyl)cyclopropanecarboxamide] | 10.2 nM |
| Cc1ccncc1-c1cc2cc(NC(=O)[C@@H]3CC[C@H]3C)ncc2c(N)n1 [Compound 322, (1R,2R)—N-(8-amino-6-(4-methylpyridin-3-yl)-2,7-naphthyridin-3-yl)-2-methylcyclobutanecarboxamide] | 14.8 nM |
| Cc1ccncc1-c1cc2cc(Nc3cnn(CC(C)(C)O)c3)ncc2c(N)n1 [Compound 260, 1-(4-[[8-amino-6-(4-methylpyridin-3-yl)-2,7-naphthyridin-3-yl]amino]-1H-pyrazol-1-yl)-2-methylpropan-2-ol] | 0.73 nM |
| Cn1cc([C@H]2C[C@@H]2C(=O)Nc2cc3cc(-c4cnccc4CCO)nc(N)c3cn2)cn1 [Compound 215, (1S,2S)—N-(8-amino-6-(4-(2-hydroxyethyl)pyridin-3-yl)-2,7-naphthyridin-3-yl)-2-(1-methyl-1H-pyrazol-4-yl)cyclopropanecarboxamide] | 1.19 nM |
| Cc1ccncc1-c1cc2cc(NC(=O)[C@H]3C[C@@]34CCNC(=O)C4)ncc2c(N)n1 [Compound 314, (1S,3S)—N-[8-amino-6-(4-methylpyridin-3-yl)-2,7-naphthyridin-3-yl]-5-oxo-6-azaspiro[2.5]octane-1-carboxamide] | 13.1 nM |
| Cc1cc(CO)ncc1-c1cc2cc(NC(=O)C3CC3)ncc2c(N)n1 [Compound 25, N-(8-amino-6-(6-(hydroxymethyl)-4-methylpyridin-3-yl)-2,7-naphthyridin-3-yl)cyclopropanecarboxamide] | 1.54 nM |
| Cc1c(N)cncc1-c1cc2cc(NC(=O)[C@H]3C[C@@H]3C#N)ncc2c(N)n1 [Compound 200, (1S,2S)—N-(8-amino-6-(5-amino-4-methylpyridin-3-yl)-2,7-naphthyridin-3-yl)-2-cyanocyclopropane-1-carboxamide] | 0.343 nM |
| Cc1ccncc1-c1cc2cc(NC(=O)[C@H]3[C@@H]4CN(C5COC5)C[C@@H]43)ncc2c(N)n1 [Compound 255, (exo)-N-[8-amino-6-(4-methylpyridin-3-yl)-2,7-naphthyridin-3-yl]-3-(oxetan-3-yl)-3-azabicyclo[3.1.0]hexane-6-carboxamide] | 33.9 nM |
| Cc1ccncc1-c1cc2cc(NC(=O)[C@H]3[C@@H]4CN(S(C)(=O)=O)C[C@@H]43)ncc2c(N)n1 [Compound 151, exo-N-[8-amino-6-(4-methyl-3-pyridyl)-2,7-naphthyridin-3-yl]-3-methylsulfonyl-3-azabicyclo [3.1.0]hexane-6-carboxamide] | 15 nM |
| N#C[C@@H]1C[C@H]1C(=O)Nc1cc2cc(-c3cnccc3-c3cn[nH]c3)nc(N)c2cn1 [Compound 235, (1R,2R)—N-(6-(4-(1H-pyrazol-4-yl)pyridin-3-yl)-8-amino-2,7-naphthyridin-3-yl)-2-cyanocyclopropanecarboxamide] | 0.706 nM |
| COC(C)(C)[C@H]1C[C@@H]1C(=O)Nc1cc2cc(-c3cnccc3C)nc(N)c2cn1 [Compound 240, (1S,2S)—N-[8-amino-6-(4-methylpyridin-3-yl)-2,7-naphthyridin-3-yl]-2-(2-methoxypropan-2-yl)cyclopropane-1-carboxamide] | 47 nM |
| Cn1cc(-c2cc3cc(NC(=O)C4CC4)ncc3c(N)n2)cn1 [Compound 27, N-[8-amino-6-(1-methylpyrazol-4-yl)-2,7-naphthyridin-3-yl]cyclopropanecarboxamide] | 1.08 nM |
| Cn1cc([C@H]2C[C@@H]2C(=O)Nc2cc3cc(-c4ccccc4Cl)nc(N)c3cn2)cn1 (stereo in doubt) [Compound 304, (1S,2S)—N-[8-amino-6-(2-chlorophenyl)-2,7-naphthyridin-3-yl]-2-(1-methyl-1H-pyrazol-4-yl)cyclopropane-1-carboxamide] | 3.02 nM |
| Cc1ccncc1-c1nc(N)c2cnc(NC(=O)C3CC3)cc2c1-c1cn[nH]c1 [Compound 258, N-(8-amino-6-(4-methylpyridin-3-yl)-5-(1H-pyrazol-4-yl)-2,7-naphthyridin-3-yl)cyclopropanecarboxamide] | 0.695 nM |

Same assay, conditions: Table B1-2, read-out: HPK1 Ki, L = Lanth

| SMILES | Ki |
| --- | --- |
| COCc1cccc(C)c1-c1cc2cc(NC(=O)[C@@H]3C[C@H]3c3cnn(C)c3)ncc2c(N)n1 [Compound 428, (1R,2R)-N-(8-amino-6-(2-(methoxymethyl)-6-methylphenyl)-2,7-naphthyridin-3-yl)-2-(1-methyl-1H-pyrazol-4-yl)cyclopropane-1-carboxamide] | 8 nM |
| Cc1ccncc1-c1cc2cc(NC(=O)[C@H]3[C@@H]4CC(NS(C)(=O)=O)C[C@@H]43)ncc2c(N)n1 (stereo partly drawn) [Compound 412, N-(8-amino-6-(4-methylpyridin-3-yl)-2,7-naphthyridin-3-yl)-3-(methylsulfonamido)bicyclo[3.1.0]hexane-6-carboxamide] | 96 nM |
